These are literature values, as cited in patent US6362158B1, “Multi-phase clear fabric softening composition” (Colgate-Palmolive Co., priority 2000, dated 2002).

“And” between values parts separate entries of the source, which are not always exact repeats. Equal entries are not always repeated.

The conditions of one data set: solvent; logarithm to base 10 of P.
Consider `OCCCCO` [1-4 Butanediol], for which the “log P (octanol/water partition coefficient)” value is listed as “(log P = −1.3)”. `CCCOC(C)COC(C)CO` (centres unmarked) [DPnP, dipropylene glycol n-propyl ether]: the “log P (octanol/water partition coefficient)” value is on record as 0.99)^2. Regarding `CCCCCCCCCCO` [Decanol], the “log P (octanol/water partition coefficient)” value is reported as 3.32).

For the compound `CCCCCCCCO` [Octanol], the “log P (octanol/water partition coefficient)” value is given as 3.15). Regarding `CCCCCO` [Pentanol], the “log P (octanol/water partition coefficient)” value was 1.3. With `CCCCOC(C)COC(C)COC(C)CO` (centres unmarked) [TPnB, tripropylene glycol n-butyl ether], the “log P (octanol/water partition coefficient)” value was 1.896 and 1.9. In the case of `CC(C)C(O)C(C)(C)CO` (centres unmarked) [Trimethyl Pentanediol], the “log P (octanol/water partition coefficient)” value is recorded as 1.24.

The data set is the same for the next values; noted with them: solvent; logarithm to base 10 of P; listed as dipropylene glycol n-propyl ether.
For the compound `CCCOC(C)COC(C)CO` (centres unmarked) [DPnP, dipropylene glycol n-propyl ether], the “log P (octanol/water partition coefficient)” value is listed as 0.994.
